Laboratory results published in a melting point compilation (Tetko et al.; mined from patent text by program, amines drawn as free bases though some values may be those of a salt).

Question: Which melting point does the source give for `COc1ccc(Nc2ccnc(F)c2)cc1` here?
Answer: The melting point was 150 °C.

Question: With `O=C(Nc1nnco1)C(c1ccccc1)c1ccccc1` as the molecule, how does the melting point read?
Answer: Its melting point is 131 to 132 °C.

Question: With `CN1CCN(Cc2ccc(-c3cc4c(Nc5cccc6[nH]ccc56)c(C#N)cnc4s3)cc2)CC1` as the molecule, how does the melting point read?
Answer: The melting point was > 245 °C.

Question: Which melting point does the source give for `CC(=NO)c1c(C#N)nn(-c2c(Cl)cc(C(F)(F)F)cc2Cl)c1N` here?
Answer: The melting point was 105 to 110 °C.

Question: Which melting point does the source give for `COc1ccc(C(=O)Nc2ccccc2C(O)c2ccccn2)cc1` (centres undefined) here?
Answer: Its melting point is 128 °C.

Question: Which melting point does the source give for `COc1cc2ncc(C#N)c(Nc3ccc(CCO)cc3)c2cc1OC` here?
Answer: The melting point was 208 to 210 °C.

Question: With `C[Si](C)(C)CCCCCCCNC(=O)n1cc(F)c(=O)[nH]c1=O` as the molecule, how does the melting point read?
Answer: Its melting point is 118 to 119 °C.

Question: Which melting point does the source give for `O=S(=O)(F)c1ccccc1S(=O)(=O)N1CCC1` here?
Answer: Its melting point is 93 °C.

Question: For `CC(=CC(=O)O)CCCCCCCCCCCCC(=O)O`, which melting point is on record?
Answer: Its melting point is 77 °C.

Question: For `OCCc1nccn1CCCCc1ccc(OCc2coc(/C=C/c3ccc(Br)cc3)n2)cc1`, which melting point is on record?
Answer: Its melting point is 149 to 150 °C.

Question: With `C#Cc1cccc(C2=CC(=O)NC2=O)c1` as the molecule, how does the melting point read?
Answer: The melting point was 129 to 131 °C.

Question: With `CC(C)Oc1ccc(-c2nc3c4ccccc4ccc3n2C)cc1` as the molecule, how does the melting point read?
Answer: The melting point was 144 to 145 °C.

Question: For `Cn1nc(C(F)(F)F)c(C(O)=C(Br)n2ccc(-c3c(F)cccc3F)n2)c1Cl`, which melting point is on record?
Answer: Its melting point is 123 to 125 °C.

Question: With `CCNC(C)c1nc(CSCCNC(=C[N+](=O)[O-])NC)cs1` (centres undefined) as the molecule, how does the melting point read?
Answer: The melting point was 114 to 116 °C.

Question: For `Cc1c(C(=O)NC2CCCCC2)nc(-c2ccccc2Cl)n1-c1ccc([N+](=O)[O-])cc1`, which melting point is on record?
Answer: The melting point was 217 to 220 °C.

Question: Which melting point does the source give for `CCC(COC)n1cc(Cl)nc(N2CCc3cc(OC)cc(Cl)c32)c1=O` (centres undefined) here?
Answer: Its melting point is 126 to 128 °C.

Question: For `COc1ccc(Nc2cccc(Cl)c2N)cc1`, which melting point is on record?
Answer: The melting point was 65 to 66 °C.

Question: Which melting point does the source give for `COc1ccc2cc(C(=O)[C@H](C)Br)ccc2c1` here?
Answer: Its melting point is 90 to 91 °C.

Question: With `COc1ccc(C2C(C(=O)/C=C/c3ccc(O)c(OC)c3)C(=O)CC(c3ccc(O)c(OC)c3)C2[N+](=O)[O-])cc1` (centres undefined) as the molecule, how does the melting point read?
Answer: Its melting point is 83 to 85 °C.

Question: For `Cc1cc(-n2ccc(OCc3ccccc3)cc2=O)sc1C(=O)NCc1ccc(F)cc1`, which melting point is on record?
Answer: The melting point was 175 to 177 °C.

Question: Which melting point does the source give for `O=c1cc(-n2ccnc2)c2cc(C(c3ccc(Cl)cc3)n3ccnc3)ccc2[nH]1` (centres undefined) here?
Answer: Its melting point is 242 °C.

Question: With `CCC(=C(c1ccccc1)c1ccc(N(CCN(CC)CC)S(C)(=O)=O)cc1)c1ccc(OC)cc1` as the molecule, how does the melting point read?
Answer: Its melting point is 120 to 130 °C.

Question: With `CCOC(=O)c1cc(CC)cnc1CNC(C)(C(N)=O)C(C)C` (centres undefined) as the molecule, how does the melting point read?
Answer: Its melting point is 68 to 72 °C.

Question: For `O=C(O)CN(CC(=O)c1ccccc1)c1c(C(=O)O)[nH]c2cc(Cl)cc(Cl)c12`, which melting point is on record?
Answer: The melting point was 235 to 237 °C.

Question: For `CN(C(=O)c1cccs1)c1cccc(-c2nc(=O)c3ccccc3s2)n1`, which melting point is on record?
Answer: Its melting point is 192 to 193 °C.

Question: With `COC(=O)c1ccc(S(=O)(=O)C(Cn2ccnc2)c2ccccc2OC)cc1` (centres undefined) as the molecule, how does the melting point read?
Answer: The melting point was 150 to 151 °C.

Question: With `Cc1ccc(NCc2ccc(C(=O)Nc3ccccc3NC(=O)OC(C)(C)C)cc2)cc1Nc1nccc(-c2cccnc2)n1` as the molecule, how does the melting point read?
Answer: The melting point was 125 °C.

Question: For `CC(=Cc1cnc2nc(N)nc(N)c2c1)c1ccc(C(=O)OC(C)(C)C)cc1`, which melting point is on record?
Answer: Its melting point is > 300 °C.

Question: With `O=Cc1ccc2sc(=O)[nH]c2c1` as the molecule, how does the melting point read?
Answer: Its melting point is 140 to 142 °C.

Question: With `CC(C)C(=O)N1CC(OCc2ccccc2)C(OCc2ccccc2)C(OCc2ccccc2)C1COCc1ccccc1` (centres undefined) as the molecule, how does the melting point read?
Answer: The melting point was 185 to 189 °C.

Question: For `CCOC(=O)/C=C/C(=O)N1C[C@H](NC(=O)OCc2ccccc2)C1=O`, which melting point is on record?
Answer: The melting point was 68 °C.

Question: For `COc1ccccc1C(O)c1cccc2c1ccn2C` (centres undefined), which melting point is on record?
Answer: Its melting point is 95 °C.

Question: Which melting point does the source give for `O=C(CO)NC1CCC(CC2CCC(NC(=O)CO)CC2)CC1` (centres undefined) here?
Answer: Its melting point is 149 to 151 °C.

Question: For `COc1cc(C)c(Br)cc1OCc1ccccc1`, which melting point is on record?
Answer: Its melting point is 110 to 111 °C.

Question: Which melting point does the source give for `O=C(CCCCC1CCSS1)NC(Cc1c[nH]cn1)C(=O)O` (centres undefined) here?
Answer: Its melting point is 122 to 126 °C.

Question: With `CCOC(=O)C(C)ON1CCNC1=Nc1c(Cl)cccc1Cl` (centres undefined) as the molecule, how does the melting point read?
Answer: The melting point was 79 to 80 °C.

Question: Which melting point does the source give for `C/C=C/[C@H](O)C[C@]1(C)CCc2c(C)c(OCc3ccccc3)c(C)c(C)c2O1` here?
Answer: The melting point was 68 to 70 °C.

Question: With `Oc1ncc(-c2ccc(C(F)(F)F)cc2)cn1` as the molecule, how does the melting point read?
Answer: The melting point was 271 to 273 °C.

Question: Which melting point does the source give for `Clc1cccc(N2CCN(CCCCOc3ccc4scnc4c3)CC2)c1Cl` here?
Answer: The melting point was 93 to 94.5 °C.
